The source of these data is article PMC11923102 (Nature Communications, 2025).

What all share (type): cell-based
Assay [1] deals with T1, TRPV3 (hTRPV3) (Homo sapiens, UniProt Q8NET8).
T1 sequence (Q8NET8 1-790): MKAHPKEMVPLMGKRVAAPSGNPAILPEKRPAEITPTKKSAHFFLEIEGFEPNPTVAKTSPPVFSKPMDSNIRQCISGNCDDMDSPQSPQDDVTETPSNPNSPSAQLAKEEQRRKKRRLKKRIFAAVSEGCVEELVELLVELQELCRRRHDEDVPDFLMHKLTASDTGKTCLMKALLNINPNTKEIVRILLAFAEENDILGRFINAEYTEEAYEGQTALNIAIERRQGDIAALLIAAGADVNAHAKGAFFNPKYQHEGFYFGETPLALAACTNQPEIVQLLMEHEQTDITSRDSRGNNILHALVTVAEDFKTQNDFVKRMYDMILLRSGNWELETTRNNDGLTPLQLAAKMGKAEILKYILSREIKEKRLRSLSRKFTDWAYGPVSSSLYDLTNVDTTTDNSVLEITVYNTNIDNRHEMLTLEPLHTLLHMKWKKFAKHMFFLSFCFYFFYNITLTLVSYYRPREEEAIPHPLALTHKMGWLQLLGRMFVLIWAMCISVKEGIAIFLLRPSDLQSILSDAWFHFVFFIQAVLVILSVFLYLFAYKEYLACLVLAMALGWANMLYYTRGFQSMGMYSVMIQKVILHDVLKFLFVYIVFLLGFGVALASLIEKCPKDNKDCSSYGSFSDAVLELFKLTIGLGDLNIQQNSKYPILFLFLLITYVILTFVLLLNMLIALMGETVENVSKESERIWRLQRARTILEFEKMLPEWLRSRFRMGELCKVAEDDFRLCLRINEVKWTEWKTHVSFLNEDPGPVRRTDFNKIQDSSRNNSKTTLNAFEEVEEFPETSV
Put plainly: cryo-EM structure.

Assay [2] concerns the target T2, mTRPV3 (Mus musculus, UniProt Q8K424).
T2 sequence (Q8K424 1-791): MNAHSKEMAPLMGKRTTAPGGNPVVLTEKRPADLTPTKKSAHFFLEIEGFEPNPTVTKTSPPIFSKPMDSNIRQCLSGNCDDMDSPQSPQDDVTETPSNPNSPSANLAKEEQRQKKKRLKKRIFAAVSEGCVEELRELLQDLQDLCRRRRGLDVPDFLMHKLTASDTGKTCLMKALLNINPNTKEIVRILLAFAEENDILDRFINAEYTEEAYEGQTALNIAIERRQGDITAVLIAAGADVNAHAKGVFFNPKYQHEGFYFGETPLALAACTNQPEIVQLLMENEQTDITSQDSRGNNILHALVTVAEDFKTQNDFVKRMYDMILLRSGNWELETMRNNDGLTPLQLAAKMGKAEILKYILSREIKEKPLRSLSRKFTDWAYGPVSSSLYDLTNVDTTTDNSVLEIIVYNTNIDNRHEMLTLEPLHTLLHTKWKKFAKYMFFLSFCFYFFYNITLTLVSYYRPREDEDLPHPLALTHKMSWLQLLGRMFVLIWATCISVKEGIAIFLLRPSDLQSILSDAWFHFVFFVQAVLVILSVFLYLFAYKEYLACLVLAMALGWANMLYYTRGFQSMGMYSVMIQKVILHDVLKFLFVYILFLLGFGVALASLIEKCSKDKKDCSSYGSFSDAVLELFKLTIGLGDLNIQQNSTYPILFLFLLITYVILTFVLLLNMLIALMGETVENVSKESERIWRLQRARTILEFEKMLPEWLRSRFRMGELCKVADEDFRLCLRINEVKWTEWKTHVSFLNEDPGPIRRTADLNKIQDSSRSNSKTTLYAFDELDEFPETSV
Put plainly: whole-cell patch clamp, inhibition of citronellal-evoked currents. (The patch-clamp technique gives a direct electrical read-out from membranes.)

Assay [3] concerns the target T1, TRPV3 (hTRPV3). Put plainly: cryo-EM structure. The source holds these as a separate data set.
In assay [4] the target is T3, TRPV3 (hTRPV3) (Homo sapiens, UniProt Q8NET8, Q695L).
T3 sequence (Q8NET8 1-790 Q695L): T1 sequence (Q8NET8 1-790) with Q695L
Put plainly: whole-cell patch clamp.

Where a chain is given by its changes, count along the chain named. Read-outs that look alike come from different tables or passages of the source.

The term EC50 denotes the concentration giving half of the maximal effect. High values mean a need for much substance, low ones an effect from little substance. Turning to `CC(C)=CCC/C(C)=C/C=O` [citral], a half-maximal effect in assay [1] (EC50) was put at 6.61 ± 0.93 mM.

For orientation: IC50 means the concentration needed to halve the response being measured. A low value points to inhibition by little substance. For `CCCCOc1ccc(C(=O)CCN2CCCCC2)cc1` [dyclonine], the IC50 in assay [2] amounted to 0.00073 ± 5e-05 mM.

In the case of `C=CC(C)(O)CCC=C(C)C` (stereo not shown) [linalool], the concentration for a half-maximal effect (EC50) was 6.19 ± 0.6 mM in assay [3] and 0.42 ± 0.02 mM in assay [4].
